Data as given in paper PMC2360155, “Novel retinoic acid metabolism blocking agents have potent inhibitory activities on human breast cancer cells and tumour growth” (British Journal of Cancer, 2007).
pIC50: −log10 of the molar value.

How the values were obtained:
[1] = system: T47D cells; assay: Cell cycle analysis by flow cytometry (PI), T47D; type: cell-based, human; details: 5 μM, 6 days (4-HPR 4 days)
Procedure: MCF-7 and T47D cells were plated in T-25 flasks and allowed to adhere for about 18 h. The cells were then synchronised by growing them in low-serum OPTI-MEM I medium for 2 days. […] After 6-day treatment, the cells were trypsinised, washed twice with PBS, centrifuged at 2500 r.p.m. to obtain a cell pellet. The cells (about 1–2 × 10^6) were fixed with 3 ml of 70% ethanol (by adding drop-wise and taking care that the cells are not clumped together). Cells were kept at −20°C until further analysis (at least overnight). Next, cells (∼1–2 × 10^6) were stained with 1 ml of propidium iodide (PI) (50 μg ml^−1)/RNase (100 μg ml^−1) solution and after about half an hour the fluorescence of stained nuclei (15 000 events) was analysed by flow cytometry (Becton Dickinson FACScan Instrument and quantification by Modfit LT version 3.1 software) with excitation wavelength of 488 nm. The percentage of G1, S, G2/M and sub-G1 (apoptotic cells) in the population of treated and untreated cells were determined.

[2] = system: cyclin D1; assay: Western blotting for cyclin D1 in MCF-7 cells; type: cell-based, human; details: 6 days (4HPR 4 days)
Procedure: At the end of the treatment, cells were scrapped and collected by washing with ice-cold PBS in a centrifuge tube. Cells were centrifuged at 2500 r.p.m. for 10 min, the pellet was again washed with ice-cold PBS and centrifuged. The cell pellet was then suspended in chilled cell lysis buffer (0.1 M Tris–HCl, 0.5% Triton X-100, protease inhibitor cocktail) and sonicated on ice for 10–15 s. The homogenate was kept on ice for 30 min and then centrifuged at 13 000 r.p.m. for 30 min. The supernatant was used as cell lysate. The cell lysates were stored at −80°C. Protein concentration of the cell lysates was determined using Bio-Rad protein assay reagents.
Protein lysates from MCF-7 and T47D cells were subjected to sodium dodecyl sulphate–polyacrylamide gel electrophoresis (SDS–PAGE) and immunoblotted for different proteins. […] Immunoreactive bands were visualised using the enhanced chemiluminescence detection reagents and analysis system (Amersham Bioscences) according to the manufacturer's instructions and quantified by densitometry using ImageQuant software version 5.
Figure 5 Western blotting of whole-cell lysates of treated MCF-7 and T47D cells for the expression of Cyclin D1. […] Numbers below the blot show fold decrease in expression of the protein as analysed by ImageQuant densitometry analysis. […]

[3] = system: MCF-7 cells; assay: TUNEL apoptosis assay, MCF-7; type: cell-based, human; details: 5 μM; 6 days; control about 1.5%
From the text: (§1) The cells were rinsed with PBS and then the stained-labelled apoptotic cells were mounted using DAPI (diamidino-2-phenylindole 2HCl)-glycerol and visualised with a fluorescent microscope using two filters (1) for TUNEL stained cells, and (2) for DAPI stained cells, which represents all the cells (nuclei). Fluorescent microscope model was Nikon, Eclipse E400 and the software was SPOT advanced version 3.5.5 by Diagnostic Instruments Inc. (Sterling Heights, MI, USA).
(§2) Figure 6 Graphs showing apoptosis induced in (A) MCF-7 and (B) T47D cells as determined by TUNEL. […] TUNEL-stained apoptotic cells were counted against the DAPI stained cells to obtain percentage apoptosis. The experiments were repeated thrice with similar results. Error bars show s.e.m of three different fields of treated cells, statistically significant ^*P<0.01 and ^**P<0.001 vs control.

[4] = system: T47D cells; assay: TUNEL apoptosis assay, T47D; type: cell-based, human; details: 5 μM; 6 days; control about 1.5%
From the text: as §1, §2

[5] = system: MCF-7 cells; design: method as in Patel et al. (2004); details: inhibition of cell proliferation by 50%; ref Patel et al. (2004); read-out: Cellular IC50, MCF-7; cited from earlier work
[6] = system: MDA-MB-231 cells; design: method as in Patel et al. (2004); details: inhibition of cell proliferation by 50%; ref Patel et al. (2004); read-out: Cellular IC50, MDA-MB-231; cited from earlier work

In the case of CC1=C(/C=C/C(C)=C/C=C/C(C)=C/C(=O)Nc2ccc(O)cc2)C(C)(C)CCC1 [Compound 4-HPR, 4-Hydroxyphenyl retinamide, reference compound], the “G2/M (%)” value [1] was 16.75±4.39%, the “Go/G1 (%)” value [1] was 76.94±3.47% and the “S (%)” value [1] was 6.32±0.93%. For the same compound, the “Sub-G1 (%)” value [1] was 30.25±6.66%, the “Decrease of cyclin D1 protein expression compared with untreated control” value [2] was > 80% and the “Induction of apoptosis (TUNEL), MCF-7” value [3] was 20–25%. For the same compound, the “Induction of apoptosis (TUNEL), T47D” value [4] was 20–25%, the pIC50 [5] was 6.83 and the pIC50 [6] was 5.85.
